Results from article PMC6934184, “Selective DNA-PKcs inhibition extends the therapeutic index of localized radiotherapy and chemotherapy” (The Journal of Clinical Investigation, 2019).

Molecular target: T1, CHEK1 (CHK1) (Homo sapiens, UniProt O14757)
T1 construct: purchased Thermo Fisher Scientific (Life Technologies) SelectScreen
Test: SelectScreen Z'LYTE
Format: biochemical
In short: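 SelectScreen broad panel; activity (Z'LYTE, Adapta) plus binding formats. ATP: Km app for CSF1R Z'LYTE; 10 for CAMK1 Adapta. Readout = % per kinase.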

T1 sequence (O14757 whole entry): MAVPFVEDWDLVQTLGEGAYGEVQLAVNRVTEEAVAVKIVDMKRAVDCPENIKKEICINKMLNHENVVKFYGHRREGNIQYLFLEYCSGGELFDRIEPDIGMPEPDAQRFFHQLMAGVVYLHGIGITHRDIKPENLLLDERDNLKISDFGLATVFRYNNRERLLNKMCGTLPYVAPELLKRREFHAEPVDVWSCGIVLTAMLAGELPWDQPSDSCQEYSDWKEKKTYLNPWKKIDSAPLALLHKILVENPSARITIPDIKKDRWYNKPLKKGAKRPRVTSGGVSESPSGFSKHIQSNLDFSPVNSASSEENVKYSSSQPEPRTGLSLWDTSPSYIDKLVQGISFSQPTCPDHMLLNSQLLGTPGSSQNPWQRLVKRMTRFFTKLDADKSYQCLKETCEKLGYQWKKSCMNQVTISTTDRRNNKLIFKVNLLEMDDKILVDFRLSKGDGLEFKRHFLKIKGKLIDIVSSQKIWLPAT

`CN(C(=O)CN1CCOCC1)c1ccc2sc3c(-c4cccc5c(=O)cc(N6CC7CCC(C6)O7)oc45)cccc3c2c1` [NU5455] showed an inhibition at 1 µM of 9.3%.
